Source: patent publication US20100298141A1, “SUBSTITUTED PYRIDINE N-OXIDE HERBICIDES” (E. I. DU PONT DE NEMOURS AND COMPANY, priority 2007, published 2010)

What was measured:
Test in all cases: Test F preemergence test
[1] = system: Surinam grass; type: in vivo, Brachiaria decumbens; conditions: scale 0 to 100
Method in brief: (§1)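 Compound in a non-phytotoxic solvent blend with surfactant is applied preemergence to planted seeds or postemergence to sugarcane plants. Plants and controls stay in the greenhouse 14 to 21 days before visual comparison.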

[2] = system: large crabgrass; type: in vivo, Digitaria sanguinalis; conditions: scale 0 to 100
Method in brief: as §1

[3] = system: kochia; type: in vivo, Kochia scoparia; conditions: scale 0 to 100
Method in brief: as §1

[4] = system: mustard; type: in vivo, Brassica nigra; conditions: scale 0 to 100
Method in brief: as §1

[5] = system: guineagrass; type: in vivo, Panicum maximum; conditions: scale 0 to 100
Method in brief: as §1

[6] = system: dallisgrass; type: in vivo, Paspalum dilatatum; conditions: scale 0 to 100
Method in brief: as §1

[7] = system: barnyardgrass; type: in vivo, Echinochloa crus-galli
Method in brief: as §1

[8] = system: southern sandbur; type: in vivo, Cenchrus echinatus; conditions: scale 0 to 100
Method in brief: as §1

[9] = system: Italian ryegrass; type: in vivo, Lolium multiflorum; conditions: scale 0 to 100
Method in brief: as §1

[10] = system: common purslane; type: in vivo, Portulaca oleracea; conditions: scale 0 to 100
Method in brief: as §1

[11] = system: common groundsel; type: in vivo, Senecio vulgaris; conditions: scale 0 to 100
Method in brief: as §1

[12] = system: Virginia dayflower; type: in vivo, Commelina virginica; conditions: 16 g ai/ha, preemergence; scale 0 to 100
Method in brief: as §1

[13] = system: annual bluegrass; type: in vivo, Poa annua; conditions: scale 0 to 100
Method in brief: as §1

[14] = system: quackgrass; type: in vivo, Elytrigia repens; conditions: scale 0 to 100
Method in brief: as §1

[15] = system: field bindweed; type: in vivo, Convolvulus arvensis; conditions: scale 0 to 100
Method in brief: as §1

[16] = system: common mallow; type: in vivo, Malva sylvestris; conditions: scale 0 to 100
Method in brief: as §1

**Q.** `Cn1nc(C(F)(F)F)c(C[S+]([O-])c2ccc(F)c[n+]2[O-])c1OCC(F)(F)F` (stereo not shown) [Compound 67] was tested. Which “Plant response rating, Surinam Grass” value ([1]; 16 g ai/ha, preemergence) did it give?
**A.** 75

**Q.** And the “Surinam Grass plant response rating” value ([1]; 125 g ai/ha, preemergence)?
**A.** 100

**Q.** And the “Plant response rating, Surinam Grass” value ([1]; Preemergence, 62 g ai/ha)?
**A.** 100

**Q.** What about the “Plant response rating, Surinam Grass” value ([1]; Preemergence, 31 g ai/ha) of the same compound?
**A.** 95

**Q.** And the “Plant response rating, Crabgrass, Large” value ([2]; 16 g ai/ha, preemergence)?
**A.** 65

**Q.** What about the “Crabgrass, Large plant response rating” value ([2]; 62 g ai/ha, Preemergence) of the same compound?
**A.** 98

**Q.** What about the “Crabgrass, Large plant response rating” value ([2]; 125 g ai/ha, preemergence) of the same compound?
**A.** 100

**Q.** What about the “Plant response rating, Crabgrass, Large” value ([2]; Preemergence, 31 g ai/ha) of the same compound?
**A.** 98

**Q.** And the “Plant response rating, Kochia” value ([3]; 16 g ai/ha, preemergence)?
**A.** 0

**Q.** What about the “Kochia plant response rating” value ([3]; 62 g ai/ha, Preemergence) of the same compound?
**A.** 100

**Q.** And the “Kochia plant response rating” value ([3]; 125 g ai/ha, preemergence)?
**A.** 100

**Q.** What about the “Plant response rating, Kochia” value ([3]; Preemergence, 31 g ai/ha) of the same compound?
**A.** 60

**Q.** What about the “Plant response rating, Black Mustard” value ([4]; 16 g ai/ha, preemergence) of the same compound?
**A.** 0

**Q.** What about the “Black Mustard plant response rating” value ([4]; 62 g ai/ha, Preemergence) of the same compound?
**A.** 100

**Q.** And the “Black Mustard plant response rating” value ([4]; 125 g ai/ha, preemergence)?
**A.** 100

**Q.** What about the “Plant response rating, Black Mustard” value ([4]; Preemergence, 31 g ai/ha) of the same compound?
**A.** 75

**Q.** What about the “Plant response rating, Guineagrass” value ([5]; 16 g ai/ha, preemergence) of the same compound?
**A.** 0

**Q.** What about the “Guineagrass plant response rating” value ([5]; 62 g ai/ha, Preemergence) of the same compound?
**A.** 100

**Q.** And the “Guineagrass plant response rating” value ([5]; 125 g ai/ha, preemergence)?
**A.** 100

**Q.** And the “Plant response rating, Guineagrass” value ([5]; Preemergence, 31 g ai/ha)?
**A.** 95

**Q.** And the “Plant response rating, Dallisgrass” value ([6]; 16 g ai/ha, preemergence)?
**A.** 0

**Q.** And the “Dallisgrass plant response rating” value ([6]; 62 g ai/ha, Preemergence)?
**A.** 95

**Q.** And the “Dallisgrass plant response rating” value ([6]; 125 g ai/ha, preemergence)?
**A.** 100

**Q.** What about the “Plant response rating, Dallisgrass” value ([6]; Preemergence, 31 g ai/ha) of the same compound?
**A.** 40

**Q.** What about the “Plant response rating, Barnyardgrass” value ([7]; 16 g ai/ha, preemergence, scale 0 to 100 (0 no effect, 100 complete control)) of the same compound?
**A.** 75

**Q.** And the “Barnyardgrass plant response rating” value ([7]; 62 g ai/ha, Preemergence, scale 0 to 100)?
**A.** 100

**Q.** What about the “Barnyardgrass plant response rating” value ([7]; 125 g ai/ha, preemergence, scale 0 to 100) of the same compound?
**A.** 100

**Q.** And the “Plant response rating, Barnyardgrass” value ([7]; Preemergence, 31 g ai/ha, scale 0 to 100)?
**A.** 90

**Q.** And the “Plant response rating, Sandbur” value ([8]; 16 g ai/ha, preemergence)?
**A.** 60

**Q.** And the “Sandbur plant response rating” value ([8]; 125 g ai/ha, preemergence)?
**A.** 100

**Q.** And the “Plant response rating, Sandbur” value ([8]; Preemergence, 62 g ai/ha)?
**A.** 100

**Q.** And the “Plant response rating, Sandbur” value ([8]; Preemergence, 31 g ai/ha)?
**A.** 100

**Q.** What about the “Plant response rating, Ryegrass, Italian” value ([9]; 16 g ai/ha, preemergence) of the same compound?
**A.** 40

**Q.** What about the “Ryegrass, Italian plant response rating” value ([9]; 125 g ai/ha, preemergence) of the same compound?
**A.** 100

**Q.** And the “Plant response rating, Ryegrass, Italian” value ([9]; Preemergence, 62 g ai/ha)?
**A.** 100

**Q.** And the “Plant response rating, Ryegrass, Italian” value ([9]; Preemergence, 31 g ai/ha)?
**A.** 75

**Q.** And the “Plant response rating, Purslane” value ([10]; 16 g ai/ha, preemergence)?
**A.** 0

**Q.** What about the “Purslane plant response rating” value ([10]; 62 g ai/ha, Preemergence) of the same compound?
**A.** 95

**Q.** And the “Purslane plant response rating” value ([10]; 125 g ai/ha, preemergence)?
**A.** 100

**Q.** And the “Plant response rating, Purslane” value ([10]; Preemergence, 31 g ai/ha)?
**A.** 0

**Q.** What about the “Plant response rating, Groundsel” value ([11]; 16 g ai/ha, preemergence) of the same compound?
**A.** 0

**Q.** What about the “Groundsel plant response rating” value ([11]; 62 g ai/ha, Preemergence) of the same compound?
**A.** 80

**Q.** And the “Groundsel plant response rating” value ([11]; 125 g ai/ha, preemergence)?
**A.** 98

**Q.** And the “Plant response rating, Groundsel” value ([11]; Preemergence, 31 g ai/ha)?
**A.** 25

**Q.** And the “Plant response rating, Dayflower” value [12]?
**A.** 50

**Q.** And the “Plant response rating, Bluegrass” value ([13]; 16 g ai/ha, preemergence)?
**A.** 0

**Q.** And the “Bluegrass plant response rating” value ([13]; 62 g ai/ha, Preemergence)?
**A.** 80

**Q.** And the “Bluegrass plant response rating” value ([13]; 125 g ai/ha, preemergence)?
**A.** 100

**Q.** What about the “Plant response rating, Bluegrass” value ([13]; Preemergence, 31 g ai/ha) of the same compound?
**A.** 0

**Q.** What about the “Plant response rating, Quackgrass” value ([14]; 16 g ai/ha, preemergence) of the same compound?
**A.** 60

**Q.** And the “Quackgrass plant response rating” value ([14]; 62 g ai/ha, Preemergence)?
**A.** 85

**Q.** What about the “Quackgrass plant response rating” value ([14]; 125 g ai/ha, preemergence) of the same compound?
**A.** 98

**Q.** And the “Plant response rating, Quackgrass” value ([14]; Preemergence, 31 g ai/ha)?
**A.** 75

**Q.** And the “Plant response rating, Field Bindweed” value ([15]; 16 g ai/ha, preemergence)?
**A.** 0

**Q.** What about the “Field Bindweed plant response rating” value ([15]; 62 g ai/ha, Preemergence) of the same compound?
**A.** 35

**Q.** And the “Field Bindweed plant response rating” value ([15]; 125 g ai/ha, preemergence)?
**A.** 80

**Q.** What about the “Plant response rating, Field Bindweed” value ([15]; Preemergence, 31 g ai/ha) of the same compound?
**A.** 10

**Q.** And the “Plant response rating, Mallow” value ([16]; 16 g ai/ha, preemergence)?
**A.** 0

**Q.** What about the “Mallow plant response rating” value ([16]; 62 g ai/ha, Preemergence) of the same compound?
**A.** 100

**Q.** And the “Mallow plant response rating” value ([16]; 125 g ai/ha, preemergence)?
**A.** 100

**Q.** And the “Plant response rating, Mallow” value ([16]; Preemergence, 31 g ai/ha)?
**A.** 15
